Measured values as given in a melting point compilation (Tetko et al.).

Row | melting point | SMILES
1 | 175 to 177 °C | CC(C)(C)c1ccc(C(=O)Nc2ccccc2N)cc1
2 | 79 to 81 °C | CCN(Cc1ccccc1)S(N)(=O)=O
3 | 214 to 216 °C | O=C(O)c1cnn2c1CCCC2
4 | 113 to 115 °C | CC1CCN(CC(C)C(=O)NN)CC1 (stereo unspecified)
5 | 247 to 249 °C | O=C(COc1ccccc1)Nc1cc(Cl)ccc1C(=O)O
6 | 135 to 137 °C | NS(=O)(=O)c1ccccc1O
7 | 200 to 202 °C | O=C1Nc2c(I)cccc2C1=O
8 | 166 to 168 °C | Nc1cccc(S(=O)(=O)NC2=NCCC2)c1
9 | 120 to 122 °C | Cc1ccc(C)c(S(=O)(=O)Oc2ccccc2C(=O)O)c1
10 | 154 to 156 °C | O=C(O)c1ccc(Oc2cccc(Br)c2)nc1
11 | 107 to 109 °C | COC(=O)c1sc(-c2cccc(Br)c2)cc1N
12 | 194 to 196 °C | NC(=O)NC(CC(=O)O)c1ccccc1 (stereo unspecified)
13 | 311 to 313 °C | O=C1COc2c(cccc2C(=O)O)N1
14 | 135 to 137 °C | CCOC(=O)c1ccc(S)nc1
15 | 65 to 67 °C | NCC1(O)CCSCC1
16 | 226 to 228 °C | O=C(O)C=Cc1ccc2ccc(Cl)cc2n1
17 | 105 to 107 °C | O=C(CCl)NN1C(=O)NC2(CCCCC2)C1=O
18 | 118 to 120 °C | CCn1c2ccccc2c2cc(N=C=S)ccc21
19 | 216 to 218 °C | CCS(=O)(=O)c1ccc(C(=O)O)cc1
20 | 249 to 251 °C | Cc1ccc(NC(=O)c2c(F)cccc2Cl)c(C(=O)O)c1
21 | 73 to 75 °C | CC(C)C(C#N)NC(=O)OC(C)(C)C (stereo unspecified)
22 | 196 to 198 °C | COc1ccc(CC2(C)NC(=O)NC2=O)cc1 (stereo unspecified)
23 | 102 to 104 °C | O=C(O)C1(Cc2ccccc2)CC1
24 | 238 to 240 °C | N#Cc1ccc(-n2cnc(N)n2)cc1
25 | 122 to 124 °C | Cc1cc(Cn2cc(Br)cn2)oc1C(=O)O
26 | 251 to 253 °C | O=c1ccc(-n2ccnc2)n[nH]1

Row | melting point | SMILES
27 | 136 to 138 °C | CCNc1ncc(C(=O)OC)s1
28 | 95 to 101 °C | CCCCc1ccc2nc(N)sc2c1
29 | 126 to 128 °C | COC(C)c1nc(C)c(C(=O)O)s1 (stereo unspecified)
30 | 288 to 290 °C | O=C(O)c1c[nH]nc1-c1ccccc1F
31 | 168 to 170 °C | O=S(=O)(Nc1ccc2cn[nH]c2c1)c1ccc2c(c1)CCC2
32 | 126 to 128 °C | Cc1ccc2[nH]cc(CCC(=O)O)c2c1
33 | 209 to 211 °C | O=C(O)c1ccc(OCc2ccccn2)cc1
34 | 189 to 191 °C | CC(=O)Nc1cc(C)c(C)cc1[N+](=O)[O-]
35 | 84 to 86 °C | CC(C)c1cccc(-c2ccc(C(=O)O)o2)c1
36 | 190 to 192 °C | O=C(O)c1oc2ccccc2c1CSC1=NCCS1
37 | 279 to 281 °C | CNS(=O)(=O)c1c[nH]c(=O)[nH]c1=O
38 | 158 to 160 °C | NC(=O)Cc1ccccc1F
39 | 170 to 172 °C | Cc1noc2nc(-c3ccccc3C(F)(F)F)cc(C(=O)O)c12
40 | 103 to 105 °C | Oc1ccc2oc3c(c2c1)CCCC3
41 | 121 to 123 °C | Cn1cc(C=O)c(=O)n(C)c1=O
42 | 249 to 251 °C | S=C1Nc2ccccc2C2CC=NN12 (stereo unspecified)
43 | 134 to 136 °C | CN(C)S(=O)(=O)c1ccc(S(=O)(=O)Cl)cc1
44 | 249 to 251 °C | Nc1ccc2c(Br)ccc(Cl)c2n1
45 | 243 to 245 °C | Cc1cc(C)n(-c2ccc(S(N)(=O)=O)cc2)n1
46 | 144 to 146 °C | O=C1CNC(=O)N1C1CC1
47 | 161 to 163 °C | CCCCN(c1ccccc1)S(=O)(=O)c1cccc(C(=O)O)c1
48 | 147 to 149 °C | O=C(O)C1CCN(c2nc3ccccc3o2)CC1
49 | 307 to 309 °C | O=C(O)c1cnc(-c2ccncc2)s1
50 | 204 to 206 °C | COc1ccccc1-n1cnnc1S
51 | 103 to 105 °C | O=CC1=Cc2cc(Br)ccc2OC1
